According to ChEMBL document CHEMBL1833918, “Design and synthesis of potent, orally-active DGAT-1 inhibitors containing a dioxino[2,3-d]pyrimidine core” (Bioorg Med Chem Lett, 2011):
The source made the active and inactive calls. The calls are words filed in the database; no cut-off is given here.

Key:
Rattus norvegicus [1] = assay: Toxicity in rat assessed as clinical signs up to 500 mg/kg; type: organism-based; parameters: dose 500 mg/kg; conditions: in vivo
Liver microsomes = assay: Stability of the compound in human liver microsomes at 10 uM after 30 mins in presence of glutathione ethyl ester; type: ADME, Microsome; conditions: 0.5 h
[2] = Lipophilicity, log D of the compound at pH 7.4; type: physicochemical; conditions: buffer
Rattus norvegicus [3] = assay: Toxicity in rat assessed as histopathological signs up to 500 mg/kg; type: organism-based; parameters: dose 500 mg/kg; conditions: in vivo
[4] = Clearance in rat; type: ADME, organism-based; conditions: in vivo
Rattus norvegicus [5] = assay: Toxicity in rat assessed as hematological signs up to 500 mg/kg; type: organism-based; parameters: dose 500 mg/kg; conditions: in vivo
hERG (KCNH2) = hERG (KCNH2) (Homo sapiens, UniProt Q12809); assay: Inhibition of human ERG at 30 uM
hERG (KCNH2), sequence (Q12809 whole entry): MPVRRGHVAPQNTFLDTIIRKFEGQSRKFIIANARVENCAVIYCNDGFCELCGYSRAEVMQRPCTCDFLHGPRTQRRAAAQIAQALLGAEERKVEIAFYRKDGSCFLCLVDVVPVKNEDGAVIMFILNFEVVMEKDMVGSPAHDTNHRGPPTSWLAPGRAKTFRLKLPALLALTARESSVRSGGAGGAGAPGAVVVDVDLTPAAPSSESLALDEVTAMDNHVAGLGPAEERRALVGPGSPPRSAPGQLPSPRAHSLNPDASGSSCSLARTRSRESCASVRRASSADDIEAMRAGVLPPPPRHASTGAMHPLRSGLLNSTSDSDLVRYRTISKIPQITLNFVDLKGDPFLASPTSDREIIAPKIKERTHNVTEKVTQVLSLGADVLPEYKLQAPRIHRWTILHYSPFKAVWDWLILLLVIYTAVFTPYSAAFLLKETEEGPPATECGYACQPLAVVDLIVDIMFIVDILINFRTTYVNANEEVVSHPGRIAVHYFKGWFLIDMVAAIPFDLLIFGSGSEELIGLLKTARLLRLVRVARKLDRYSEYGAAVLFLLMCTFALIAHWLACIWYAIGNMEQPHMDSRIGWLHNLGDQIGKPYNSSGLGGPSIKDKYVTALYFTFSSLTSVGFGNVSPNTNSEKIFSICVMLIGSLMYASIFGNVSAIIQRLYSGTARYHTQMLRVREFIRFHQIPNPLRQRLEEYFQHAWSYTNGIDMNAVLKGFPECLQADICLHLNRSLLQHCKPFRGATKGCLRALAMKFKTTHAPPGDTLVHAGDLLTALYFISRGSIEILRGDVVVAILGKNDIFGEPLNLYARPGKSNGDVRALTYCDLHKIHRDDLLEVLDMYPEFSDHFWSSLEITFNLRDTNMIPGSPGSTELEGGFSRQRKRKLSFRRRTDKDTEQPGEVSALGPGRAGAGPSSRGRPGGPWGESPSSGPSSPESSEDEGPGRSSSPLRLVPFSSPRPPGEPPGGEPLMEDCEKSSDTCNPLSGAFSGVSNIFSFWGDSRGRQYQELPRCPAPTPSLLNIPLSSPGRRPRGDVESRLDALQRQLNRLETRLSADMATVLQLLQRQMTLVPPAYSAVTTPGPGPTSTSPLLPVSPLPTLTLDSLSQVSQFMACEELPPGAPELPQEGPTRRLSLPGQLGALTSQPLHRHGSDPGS

[6] = Permeability of the compound; type: ADME; conditions: not told; read-out: permeability
Mus musculus [7] = organism: Mus musculus; conditions: C57BL6J, 1 to 3 mg/kg
Description: Inhibition of triglyceride synthesis in a lipid challenged C57BL6J mouse at 1 to 3 mg/kg, po coadministered with bolus of lipid

Salmonella typhimurium = assay: Genotoxicity in Salmonella Typhimurium by Ames test; type: toxicity, organism-based; conditions: salmonella enterica subsp. enterica serovar typhimurium
Mus musculus [8] = assay: Inhibition of triglyceride synthesis in a lipid challenged C57BL6J mouse administered orally; type: functional; conditions: po

Row | Stability (Liver microsomes) | logD [2] | clearance [4] [mL/min/kg] | Papp [6] [×10⁻⁶ cm/s] | SMILES | Activity (Rattus norvegicus [1]) | Activity (Rattus norvegicus [3]) | Activity (Rattus norvegicus [5]) | inhibition at 30 µM (hERG (KCNH2)) [%] | inhibition (Mus musculus [7]) | Activity (Salmonella typhimurium) | ED50 (Mus musculus [8]) [mg/kg]
1 | Unstable | 0.74 | 2 | 7.7 | Nc1ncnc2c1O[C@@H](c1ccc([C@H]3CC[C@H](CC(=O)O)CC3)cc1)CO2 | Non-toxic | Non-toxic | Non-toxic | 8 | Active | Non-toxic | –
2 | – | -0.15 | – | – | Nc1ncnc2c1C(=O)N(c1ccc([C@H]3CC[C@H](CC(=O)O)CC3)cc1)CCO2 [PF-04620110] | – | – | – | – | – | – | –
3 | – | – | – | – | CC1(C)Oc2ncnc(N)c2N=C1c1ccc([C@H]2CC[C@H](CC(=O)O)CC2)cc1 | – | – | – | – | – | – | 0.3
